The values below are quoted from earlier work in patent EP2899264B1, “EMULSION FOR MICROBIAL GROWTH, METHOD FOR GROWING MICROORGANISMS BY USING SAID EMULSION, AND METHOD FOR PRODUCING MICROBIAL METABOLITE” (Kaneka Corporation, priority 2012, dated 2014).

The conditions of data set [1]: for concentration at which the acid aggregates: in water.
The subject of a further data set is Aeromonas hydrophila. As to conditions: sole carbon source.
The test system of data set [2] is Ralstonia eutropha (currently classified as Cupriavidus necator). The note with it: sole carbon source.
For another data set, the system named is microorganisms. As to conditions: used as emulsifier.

As for `CCCCCCCCCCCCCCCCCC(=O)O` [stearic acid], in data set [1], the “concentration at which the acid aggregates” value is at most 1000 nM.

As to `CCCCCCCCCCCC(=O)O` [lauric acid], the water solubility in data set [1] is at most 100 µg/mL. Besides, the dry cell weight entry in the data set on Aeromonas hydrophila is recorded as “about 8 g/L”. For the same molecule, the PHA productivity in data set [2] is on record as at most 1 g/L.

Consider `CCCCCCCCCCCCCCCC(=O)O` [palmitic acid], for which, in data set [1], the “concentration at which the acid aggregates” value was at most 1000 nM.

With `CCCCCCCCCCCCCC(=O)O` [myristic acid], the PHA productivity in data set [2] is listed as at most 1 g/L.

With `CCCCCCCCCCCCOS(=O)(=O)[O-].[Na+]` [SDS], the “effect on growth of microorganisms” value in the data set with microorganisms was “inhibit growth of microorganisms”.

With Triton X-100, the “effect on growth of microorganisms” value with microorganisms is reported as “inhibit growth of microorganisms”.
